Literature values as cited in patent publication US10272261B2, “Methods and compositions for treating ocular glaucoma” (Massachusetts Eye and Ear Infirmary, priority 2004, dated 2019).

System: pigmented rabbits
Conditions: pigmented rabbits compared with albino rabbits; cited from earlier work

chloro-aluminum sulfonated phthalocyanine [CASPc]
duration of IOP reduction by ciliary body PDT: lasted a relatively shorter period than that of albino rabbits
